This passage reports IC50 and Ki results from ChEMBL document CHEMBL1129561 (J Med Chem, 1996).

The target of assay [1] is T1, Progesterone receptor (Homo sapiens, UniProt P06401).
T1 sequence (P06401 whole entry): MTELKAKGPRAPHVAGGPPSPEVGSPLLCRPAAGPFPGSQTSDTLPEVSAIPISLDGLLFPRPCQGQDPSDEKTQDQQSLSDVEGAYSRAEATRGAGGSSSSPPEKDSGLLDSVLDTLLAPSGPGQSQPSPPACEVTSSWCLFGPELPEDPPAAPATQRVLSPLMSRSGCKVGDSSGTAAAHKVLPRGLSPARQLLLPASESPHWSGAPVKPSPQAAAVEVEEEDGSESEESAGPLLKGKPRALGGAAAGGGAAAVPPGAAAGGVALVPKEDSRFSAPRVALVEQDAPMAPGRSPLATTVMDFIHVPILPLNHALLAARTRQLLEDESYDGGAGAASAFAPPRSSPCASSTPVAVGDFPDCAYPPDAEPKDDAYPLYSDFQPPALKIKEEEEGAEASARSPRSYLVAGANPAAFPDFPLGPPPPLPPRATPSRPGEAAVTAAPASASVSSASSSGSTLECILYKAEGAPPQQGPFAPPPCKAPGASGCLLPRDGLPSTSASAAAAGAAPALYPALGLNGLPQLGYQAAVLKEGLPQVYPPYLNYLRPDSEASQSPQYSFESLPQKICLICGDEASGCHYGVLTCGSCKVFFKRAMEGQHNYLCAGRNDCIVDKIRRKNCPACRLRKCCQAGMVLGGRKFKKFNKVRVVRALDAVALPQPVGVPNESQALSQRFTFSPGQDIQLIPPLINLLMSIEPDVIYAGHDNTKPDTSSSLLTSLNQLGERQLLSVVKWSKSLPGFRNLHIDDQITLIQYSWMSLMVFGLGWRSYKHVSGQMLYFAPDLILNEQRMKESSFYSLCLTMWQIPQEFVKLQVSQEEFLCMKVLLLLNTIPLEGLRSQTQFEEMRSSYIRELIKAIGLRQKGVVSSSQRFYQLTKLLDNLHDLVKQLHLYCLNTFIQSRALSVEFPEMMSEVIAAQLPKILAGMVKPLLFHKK

For a further assay, the target named is Estrogen receptor (Homo sapiens, UniProt Q92731+P03372).
Assay [2] has as its target T1, Progesterone receptor. This is another data set of the same source.
The target in assay [3] is T2, Androgen receptor (Homo sapiens, UniProt P10275).
T2 sequence (P10275 whole entry): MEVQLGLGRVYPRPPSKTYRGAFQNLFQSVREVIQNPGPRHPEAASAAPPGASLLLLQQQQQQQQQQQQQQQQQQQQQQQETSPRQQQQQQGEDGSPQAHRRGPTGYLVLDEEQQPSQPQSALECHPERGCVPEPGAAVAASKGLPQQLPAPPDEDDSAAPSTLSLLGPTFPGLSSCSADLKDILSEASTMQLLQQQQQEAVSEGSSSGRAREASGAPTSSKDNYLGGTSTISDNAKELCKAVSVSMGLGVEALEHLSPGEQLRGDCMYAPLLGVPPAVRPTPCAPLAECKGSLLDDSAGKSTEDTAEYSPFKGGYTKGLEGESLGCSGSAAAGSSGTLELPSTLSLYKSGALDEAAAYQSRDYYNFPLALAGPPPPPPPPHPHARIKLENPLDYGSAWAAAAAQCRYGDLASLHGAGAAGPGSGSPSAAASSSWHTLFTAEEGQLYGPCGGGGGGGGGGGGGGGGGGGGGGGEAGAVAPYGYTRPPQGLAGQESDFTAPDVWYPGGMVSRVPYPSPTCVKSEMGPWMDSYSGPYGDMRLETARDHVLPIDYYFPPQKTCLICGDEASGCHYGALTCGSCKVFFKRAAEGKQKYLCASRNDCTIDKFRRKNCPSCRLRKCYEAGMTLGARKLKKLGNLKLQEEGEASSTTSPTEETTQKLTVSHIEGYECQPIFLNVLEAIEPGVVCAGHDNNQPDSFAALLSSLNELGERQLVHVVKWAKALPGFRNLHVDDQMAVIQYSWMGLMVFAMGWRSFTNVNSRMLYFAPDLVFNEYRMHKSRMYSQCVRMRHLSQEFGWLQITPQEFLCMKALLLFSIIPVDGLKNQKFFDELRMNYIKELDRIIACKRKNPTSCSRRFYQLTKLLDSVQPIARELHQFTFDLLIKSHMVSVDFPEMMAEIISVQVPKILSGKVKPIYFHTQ
Description: Binding affinity determined against human Androgen receptor

Assay [4] concerns the target T2, Androgen receptor. This is another data set of the same source.
Description: Inhibitory activity against human Androgen receptor
Assay [5] deals with T3, Mineralocorticoid receptor (Homo sapiens, UniProt P08235).
T3 sequence (P08235 whole entry): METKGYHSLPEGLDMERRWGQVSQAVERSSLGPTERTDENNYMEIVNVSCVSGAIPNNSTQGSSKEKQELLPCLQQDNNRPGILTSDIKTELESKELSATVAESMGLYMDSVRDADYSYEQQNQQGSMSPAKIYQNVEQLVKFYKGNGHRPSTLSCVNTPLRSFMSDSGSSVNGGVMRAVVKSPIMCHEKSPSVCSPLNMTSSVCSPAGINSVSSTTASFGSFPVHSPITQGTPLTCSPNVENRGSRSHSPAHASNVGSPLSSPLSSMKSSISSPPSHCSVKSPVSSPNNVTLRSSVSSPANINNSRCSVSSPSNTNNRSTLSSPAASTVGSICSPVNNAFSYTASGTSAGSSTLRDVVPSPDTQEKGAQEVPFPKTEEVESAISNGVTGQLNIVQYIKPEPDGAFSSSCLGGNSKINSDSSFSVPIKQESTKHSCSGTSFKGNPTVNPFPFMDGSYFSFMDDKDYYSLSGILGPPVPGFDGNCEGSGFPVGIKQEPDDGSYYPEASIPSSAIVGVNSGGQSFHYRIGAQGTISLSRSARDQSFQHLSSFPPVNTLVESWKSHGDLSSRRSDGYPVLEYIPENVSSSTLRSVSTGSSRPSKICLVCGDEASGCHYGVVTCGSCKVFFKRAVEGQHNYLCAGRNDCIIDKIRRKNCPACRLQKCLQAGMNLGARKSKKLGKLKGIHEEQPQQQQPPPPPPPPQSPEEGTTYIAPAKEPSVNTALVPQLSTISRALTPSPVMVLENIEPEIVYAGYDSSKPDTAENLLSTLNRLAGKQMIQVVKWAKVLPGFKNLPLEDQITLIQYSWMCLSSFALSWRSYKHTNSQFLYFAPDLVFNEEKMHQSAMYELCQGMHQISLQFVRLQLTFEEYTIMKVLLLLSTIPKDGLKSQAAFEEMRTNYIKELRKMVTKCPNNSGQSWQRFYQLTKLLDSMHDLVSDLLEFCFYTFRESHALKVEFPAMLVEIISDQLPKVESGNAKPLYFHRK
Description: Inhibitory activity against human mineralocorticoid receptor (hMR)

Each structure is given as a SMILES string.

Description for Estrogen receptor: Inhibitory activity against human estrogen receptor

Usually IC50 stands for the point on the concentration scale where inhibition reaches its midpoint. The low end stands for greater potency in that assay, the high end for weaker potency in that assay. One may read the Ki as a dissociation constant, usually derived from enzyme kinetics or from competition with a known ligand. Lower therefore signals tighter binding. On to `C=C1C=C(C)CC(C)(C)C1Cc1ccc([N+](=O)[O-])cc1` (stereo unspecified), for which the IC50 at Progesterone receptor [1] was 0.186 µM; against Estrogen receptor, more than 10 µM; at Progesterone receptor [2], 1.05 µM; against Androgen receptor [4] it was 0.25 µM; in assay [5] it was more than 10 µM. The compound further came in with a Ki on Androgen receptor [3] of 6.3 µM.
